What was measured:
[1] = target: HEK-293 cells transfected with dox-inducible human wild type FGFR3 (Homo sapiens (Human), UniProt P22607); experiment: FGFR3 pERK cell assay; format: cell-based; conditions: HEK-293 dox-inducible FGFR3, 1 hour compound, 100 ng/ml FGF-acidic; maximum concentration 5 μM
Method in brief: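 Doxycycline-induced cells preincubated 1 h at 37 °C with compound (1:3 dilutions, top 5 μM final), then stimulated 5 min with 100 ng/ml FGF-acidic. Lysate phospho-ERK1/2 measured by MSD sandwich assay; IC50 at 50 POC from 4-parameter fit, normalised to no-compound and control-compound wells.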

[2] = target: dephosphorylated FGFR1 (SEQ ID NO: 1, amino acids 458 to 765) (Homo sapiens (Human), UniProt P11362); experiment: FGFR enzyme binding assay (HTRF tracer displacement), FGFR1; conditions: 5 nM dephosphorylated FGFR1, average of multiple determinations if made
dephosphorylated FGFR1 (SEQ ID NO: 1, amino acids 458 to 765), sequence (P11362 458-765): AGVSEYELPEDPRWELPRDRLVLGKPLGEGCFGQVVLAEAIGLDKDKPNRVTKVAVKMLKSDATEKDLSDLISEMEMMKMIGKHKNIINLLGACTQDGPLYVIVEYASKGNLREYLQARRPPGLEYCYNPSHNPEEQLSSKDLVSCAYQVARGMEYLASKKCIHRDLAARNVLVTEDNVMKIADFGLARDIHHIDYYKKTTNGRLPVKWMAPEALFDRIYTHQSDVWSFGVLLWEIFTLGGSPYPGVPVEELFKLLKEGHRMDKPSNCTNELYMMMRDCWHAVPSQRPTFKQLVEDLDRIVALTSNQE
Method in brief: (§1)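 Kinase and tracer were incubated with compound for 60 minutes at 22° C. Tracer displacement was then measured by HTRF, and results were expressed as POC with 1 μM control inhibitor defining full displacement.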

[3] = target: HEK-293 cells transfected with dox-inducible human wild type FGFR1 (Homo sapiens (Human), UniProt P11362); experiment: FGFR1 pERK cell assay; format: cell-based; conditions: HEK-293 dox-inducible FGFR1, 1 hour compound, 100 ng/ml FGF-acidic; maximum concentration 5 μM
HEK-293 cells transfected with dox-inducible human wild type FGFR1, sequence (P11362 22-822): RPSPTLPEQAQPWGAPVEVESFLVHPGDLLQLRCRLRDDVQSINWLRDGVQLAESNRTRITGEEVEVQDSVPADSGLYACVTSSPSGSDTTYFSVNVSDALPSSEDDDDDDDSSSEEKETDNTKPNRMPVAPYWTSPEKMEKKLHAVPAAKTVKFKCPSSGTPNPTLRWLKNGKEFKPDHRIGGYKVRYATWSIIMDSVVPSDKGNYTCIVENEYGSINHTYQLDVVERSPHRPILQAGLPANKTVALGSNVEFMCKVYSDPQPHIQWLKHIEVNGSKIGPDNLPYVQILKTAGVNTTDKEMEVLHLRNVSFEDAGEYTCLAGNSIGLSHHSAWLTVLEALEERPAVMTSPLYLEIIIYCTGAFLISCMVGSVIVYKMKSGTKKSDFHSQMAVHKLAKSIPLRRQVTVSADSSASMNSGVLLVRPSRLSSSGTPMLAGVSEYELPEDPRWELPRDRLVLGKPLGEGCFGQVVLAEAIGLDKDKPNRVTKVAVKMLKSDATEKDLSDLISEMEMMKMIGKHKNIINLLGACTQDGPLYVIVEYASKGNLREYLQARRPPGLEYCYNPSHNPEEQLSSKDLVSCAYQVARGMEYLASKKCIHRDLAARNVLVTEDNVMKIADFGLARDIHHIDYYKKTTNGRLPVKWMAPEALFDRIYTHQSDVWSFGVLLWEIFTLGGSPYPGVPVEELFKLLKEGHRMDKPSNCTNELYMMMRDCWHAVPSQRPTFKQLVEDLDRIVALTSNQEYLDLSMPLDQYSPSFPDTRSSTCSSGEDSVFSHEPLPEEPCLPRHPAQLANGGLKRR
Method in brief: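 In HEK-293 cells with dox-induced human wild-type FGFR1, compounds (1:3 dilutions, top 5 μM final) were applied 1 h at 37°C before 5 min stimulation with 100 ng/ml FGF-acidic. Phospho-ERK1/2 measured by MSD sandwich immunoassay; IC50 from 4-parameter fit of POC versus vehicle and control compound.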

[4] = target: recombinant human FGFR2 cytoplasmic domain (amino acids 403-822) (Homo sapiens (Human), UniProt P21802); experiment: FGFR2 enzyme activity assay (LanthaScreen TR-FRET); format: biochemical; conditions: 15 μM ATP, 20 min incubation at 22° C., average of multiple determinations if made, read-out: FGFR2 Enz FRET IC50
recombinant human FGFR2 cytoplasmic domain (amino acids 403-822), sequence (P21802 402-821): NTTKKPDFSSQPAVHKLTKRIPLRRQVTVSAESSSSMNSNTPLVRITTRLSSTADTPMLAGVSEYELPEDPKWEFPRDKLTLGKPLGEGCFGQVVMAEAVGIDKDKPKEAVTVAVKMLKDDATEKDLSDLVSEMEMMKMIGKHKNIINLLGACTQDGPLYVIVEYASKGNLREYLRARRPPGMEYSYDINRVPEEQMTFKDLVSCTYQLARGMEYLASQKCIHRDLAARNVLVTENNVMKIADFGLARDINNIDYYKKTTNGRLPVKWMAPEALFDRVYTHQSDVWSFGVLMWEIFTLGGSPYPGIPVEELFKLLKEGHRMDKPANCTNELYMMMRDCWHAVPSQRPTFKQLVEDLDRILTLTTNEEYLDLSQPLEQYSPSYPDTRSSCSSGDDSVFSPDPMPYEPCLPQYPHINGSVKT
Method in brief: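 Substrate phosphorylation was read by TR-FRET using Eu-PY20 antibody (60 min, 22 °C) after a 20 min, 22 °C reaction. The reaction used 15 μM ATP, 100 nM fluorescent poly-GT peptide and His-tagged FGFR2 403-822 ([…]) at pH 7.5 with 2% DMSO.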

[5] = target: phosphorylated FGFR3 (SEQ ID NO: 5, amino acids 449 to 759) (Homo sapiens (Human), UniProt P22607); experiment: FGFR enzyme binding assay (HTRF tracer displacement), FGFR3; conditions: 5 nM phosphorylated FGFR3, average of multiple determinations if made
phosphorylated FGFR3 (SEQ ID NO: 5, amino acids 449 to 759), sequence (P22607 449-759): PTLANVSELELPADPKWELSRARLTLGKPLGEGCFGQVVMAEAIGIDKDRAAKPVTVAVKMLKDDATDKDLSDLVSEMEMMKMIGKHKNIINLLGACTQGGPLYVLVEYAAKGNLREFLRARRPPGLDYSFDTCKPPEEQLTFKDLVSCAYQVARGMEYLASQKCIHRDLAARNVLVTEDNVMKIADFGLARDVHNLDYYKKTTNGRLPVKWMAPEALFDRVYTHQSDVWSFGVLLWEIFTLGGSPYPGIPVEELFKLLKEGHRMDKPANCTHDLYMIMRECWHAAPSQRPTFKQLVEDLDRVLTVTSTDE
Method in brief: as §1

HEK-293 cells transfected with dox-inducible human wild type FGFR3, sequence (P22607 23-806): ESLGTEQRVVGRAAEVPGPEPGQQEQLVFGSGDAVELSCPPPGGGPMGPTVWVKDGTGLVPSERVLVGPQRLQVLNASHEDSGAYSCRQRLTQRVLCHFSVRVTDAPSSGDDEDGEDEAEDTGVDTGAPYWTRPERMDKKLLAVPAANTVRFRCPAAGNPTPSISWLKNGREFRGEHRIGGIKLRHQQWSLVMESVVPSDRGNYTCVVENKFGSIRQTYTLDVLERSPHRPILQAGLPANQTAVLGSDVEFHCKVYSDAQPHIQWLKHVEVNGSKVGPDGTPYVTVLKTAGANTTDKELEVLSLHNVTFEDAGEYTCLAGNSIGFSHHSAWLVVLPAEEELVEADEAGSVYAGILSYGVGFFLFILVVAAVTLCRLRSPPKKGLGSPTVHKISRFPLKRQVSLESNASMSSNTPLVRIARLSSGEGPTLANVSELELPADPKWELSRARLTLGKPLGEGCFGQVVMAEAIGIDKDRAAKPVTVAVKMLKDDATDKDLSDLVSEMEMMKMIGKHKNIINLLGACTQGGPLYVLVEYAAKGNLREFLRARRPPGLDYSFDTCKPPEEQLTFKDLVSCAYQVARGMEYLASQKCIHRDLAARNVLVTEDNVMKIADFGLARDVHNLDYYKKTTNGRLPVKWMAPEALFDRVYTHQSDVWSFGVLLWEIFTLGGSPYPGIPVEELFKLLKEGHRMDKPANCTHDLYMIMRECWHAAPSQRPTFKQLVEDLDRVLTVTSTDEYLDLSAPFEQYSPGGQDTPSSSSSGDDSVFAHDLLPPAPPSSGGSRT

| IC50 [1] [µM] | IC50 [2] [µM] | IC50 [3] [µM] | IC50 [4] [µM] | IC50 [5] [µM] | Structure (SMILES) |
| --- | --- | --- | --- | --- | --- |
| 0.034 | 0.032 | 0.196 | 0.002 | 0.003 | COc1cc(-c2cnn(C3CCN(C(=O)C4CN(C(=O)/C=C/CCl)C4)CC3)c2)cn2ncc(C#N)c12 [Example 181, (E)-6-(1-(1-(1-(4-chlorobut-2-enoyl)azetidine-3-carbonyl)piperidin-4-yl)-1H-pyrazol-4-yl)-4-methoxypyrazolo[1,5-a]pyridine-3-carbonitrile] |
| 0.055 | 0.488 | 0.915 | 0.239 | 0.005 | COc1cc(-c2cnn(C3CCN(C(=O)C4(F)CN(C(=O)/C=C/CN(C)C)C4)CC3)c2C)cn2ncc(Cl)c12 [Example 170, (E)-1-(3-(4-(4-(3-chloro-4-methoxypyrazolo [1,5-a]pyridin-6-yl)-5-methyl-1H-pyrazol-1-yl)piperidine-1-carbonyl)-3-fluoroazetidin-1-yl)-4-(dimethylamino)but-2-en-1-one] |
| 0.351 | 1.62 | 2.1 | 0.155 | 0.073 | C=CC(=O)N1CC(F)(C(=O)N2CCC(n3ncc(-c4cc(OC)c5c(C#N)cnn5c4)c3CC)CC2)C1 [Example 96, 6-(1-(1-(1-acryloyl-3-fluoroazetidine-3-carbonyl)piperidin-4-yl)-5-ethyl-1H-pyrazol-4-yl)-4-methoxypyrazolo[1,5-a]pyridine-3-carbonitrile] |
| 0.137 | 0.07 | 0.573 | 0.01 | 0.01 | C=CC(=O)N1CC(C(=O)N2CCC3(C2)CN(c2ccc(-c4cc(OC)c5c(C#N)cnn5c4)cn2)C3)C1 [Example 103, 6-(6-(6-(1-acryloylazetidine-3-carbonyl)-2,6-diazaspiro[3.4]octan-2-yl)pyridin-3-yl)-4-methoxypyrazolo[1,5-a]pyridine-3-carbonitrile] |
| 0.099 | 0.608 | 0.502 | 0.05 | 0.034 | COc1cc(-c2ccc(N3CCN(C(=O)C4(F)CN(C(=O)/C=C/CN(C)C)C4)CC3)nc2C)cn2ncc(C#N)c12 [Example 168, (E)-6-(6-(4-(1-(4-(dimethylamino)but-2-enoyl)-3-fluoroazetidine-3-carbonyl)piperazin-1-yl)-2-methylpyridin-3-yl)-4-methoxypyrazolo [1,5-a]pyridine-3-carbonitrile] |
| 0.096 | 0.051 | 0.496 | 0.002 | 0.004 | COc1cc(-c2cnn(C3CCN(CC4CN(C(=O)/C=C/CN(C)C)C4)CC3)c2)cn2ncc(C#N)c12 [Example 146, (E)-6-(1-(1-((1-(4-(dimethylamino)but-2-enoyl)azetidin-3-yl)methyl)piperidin-4-yl)-1H-pyrazol-4-yl)-4-methoxypyrazolo [1,5-a]pyridine-3-carbonitrile] |
| 0.188 | 0.35 | ≥ 5 | 0.015 | 0.003 | COc1cc(-c2nnn(C3CCN(C(=O)C4(F)CN(C(=O)/C=C/CN(C)C)C4)CC3)c2C)cn2ncc(C#N)c12 [Example 164, (E)-6-(1-(1-(1-(4-(dimethylamino)but-2-enoyl)-3-fluoroazetidine-3-carbonyl)piperidin-4-yl)-5-methyl-1H-1,2,3-triazol-4-yl)-4-methoxypyrazolo [1,5-a]pyridine-3-carbonitrile] |
| 0.164 | 0.359 | 1.28 | 0.028 | 0.007 | COc1cc(-c2cnn(C3CCN(CC4(OC)CN(C(=O)/C=C/CN(C)C)C4)CC3)c2C)cn2ncc(Cl)c12 [Example 173, (E)-1-(3-((4-(4-(3-chloro-4-methoxypyrazolo [1,5-a]pyridin-6-yl)-5-methyl-1H-pyrazol-1-yl)piperidin-1-yl)methyl)-3-methoxyazetidin-1-yl)-4-(dimethylamino)but-2-en-1-one] |
| 0.355 | 0.108 | 1.35 | 0.009 | 0.016 | C=CC(=O)N1CC(C(=O)N2C[C@H]3C[C@@H]2CN3c2ccc(-c3cc(OC)c4c(C#N)cnn4c3)cn2)C1 [Example 107, 6-(6-((1R,4R)-5-(1-acryloylazetidine-3-carbonyl)-2,5-diazabicyclo[2.2.1]heptan-2-yl)pyridin-3-yl)-4-methoxypyrazolo[1,5-a]pyridine-3-carbonitrile] |
| 0.052 | 0.12 | 0.492 | 0.012 | 0.007 | C=CC(=O)N1CC(C(=O)N2CCC(n3cc(-c4cc(OC)c5c(Cl)cnn5c4)cn3)CC2)C1 [Example 122, 1-(3-(4-(4-(3-chloro-4-methoxypyrazolo[1,5-a]pyridin-6-yl)-1H-pyrazol-1-yl)piperidine-1-carbonyl)azetidin-1-yl)prop-2-en-1-one] |
| 0.036 | 0.814 | 1.2 | 0.359 | 0.019 | C=CC(=O)N1CC(OC)(C(=O)N2CCC(n3ncc(-c4cc(OC)c5c(Cl)cnn5c4)c3C)CC2)C1 [Example 117, 1-(3-(4-(4-(3-chloro-4-methoxypyrazolo[1,5-a]pyridin-6-yl)-5-methyl-1H-pyrazol-1-yl)piperidine-1-carbonyl)-3-methoxyazetidin-1-yl)prop-2-en-1-one] |
| 0.348 | 0.04 | 3.63 | 0.003 | 0.002 | COc1cc(-c2cnn(C3CCN(C(=O)C4CN(C(=O)/C=C/CN5CC[C@H](F)C5)C4)CC3)c2)cn2ncc(C#N)c12 [Example 182, (S,E)-6-(1-(1-(1-(4-(3-fluoropyrrolidin-1-yl)but-2-enoyl)azetidine-3-carbonyl)piperidin-4-yl)-1H-pyrazol-4-yl)-4-methoxypyrazolo[1,5-a]pyridine-3-carbonitrile] |
| 0.207 | 1.14 | 1.65 | 1.17 | 0.034 | COc1cc(-c2nn(C3CCN(C(=O)C4(F)CN(C(=O)/C=C/CN(C)C)C4)CC3)nc2C)cn2ncc(C#N)c12 [Example 163, (E)-6-(2-(1-(1-(4-(dimethylamino)but-2-enoyl)-3-fluoroazetidine-3-carbonyl)piperidin-4-yl)-5-methyl-2H-1,2,3-triazol-4-yl)-4-methoxypyrazolo [1,5-a]pyridine-3-carbonitrile] |
| 0.592 | 0.046 | 4.57 | 0.004 | 0.004 | COc1cc(-c2cnn(C3CCN(C(=O)C4CN(C(=O)/C=C/CN5CC[C@@H](F)C5)C4)CC3)c2)cn2ncc(C#N)c12 [Example 183, (R,E)-6-(1-(1-(1-(4-(3-fluoropyrrolidin-1-yl)but-2-enoyl)azetidine-3-carbonyl)piperidin-4-yl)-1H-pyrazol-4-yl)-4-methoxypyrazolo[1,5-a]pyridine-3-carbonitrile] |
| 0.318 | 0.049 | 0.989 | 0.004 | 0.008 | COc1cc(-c2cnn(C3CCN(C(=O)C4CN(C(=O)C5=CCC5)C4)CC3)c2)cn2ncc(C#N)c12 [Example 137, 6-(1-(1-(1-(cyclobut-1-ene-1-carbonyl)azetidine-3-carbonyl)piperidin-4-yl)-1H-pyrazol-4-yl)-4-methoxypyrazolo[1,5-a]pyridine-3-carbonitrile] |

Reference: patent publication US12180207B2 (ARRAY BIOPHARMA INC., priority 2018, dated 2024)
